# Test results reported in patent US12648944B2, “Masitinib for the treatment of castrate-resistant prostate cancer” (AB SCIENCE, priority 2021, dated 2026).
# Tested on: first line metastatic castrate-resistant prostate cancer (mCRPC)
# Assay: Phase 3 randomized double blind placebo-controlled study of masitinib in combination with docetaxel (+ prednisone), progression-free survival
# Format: in vivo, human
# Conditions: for Hazard Ratio / Risk Benefit: masitinib vs placebo, each + docetaxel + prednisone; for Median progression-free survival (PFS): masitinib 6 mg/kg/day + docetaxel + prednisone
# Description: A prospective, multicenter, randomized, double blind, placebo-controlled, 2-parallel groups, phase 3 study was conducted to assess the efficacy and safety of masitinib in combination with docetaxel as compared to placebo in combination with docetaxel in first line metastatic castrate-resistant prostate cancer (mCRPC).
# The objective of the study was to assess the efficacy and safety of masitinib in combination with docetaxel as compared to docetaxel in combination with placebo in first line metastatic castrate-resistant prostate cancer (mCRPC). Efficacy was assessed based on the progression-free survival (PFS), measured in months.
# The patients recruited in the study consist of adult males suffering from prostate cancer who progressed to develop castration-resistant prostate cancer (CRPC) after castration treatment (reduction of androgens (e.g., testosterone, dihydrotestosterone (DHT)) by chemical or surgical means). These patients are considered to be patients in the first line metastatic castration-resistant prostate cancer (mCRPC).
# The patients recruited in the study were randomized in two groups with a ratio 1:1: • Group 1: masitinib (6 mg/kg/day)+docetaxel (75 mg/m^2 6 cycles—8 or 10 cycles possible)+prednisone according to usual practice; • Group 2: placebo+docetaxel (75 mg/m^2 6 cycles—8 or 10 cycles possible)+prednisone according to usual practice.
# Docetaxel was combined with prednisone as usual practice.
# Patients were centrally randomized to one of the two treatment groups by IWRS (Interactive Web Response System) according to minimization method.
# Inclusion criteria were: • Patient aged≥18 years old, with histologically or cytologically confirmed metastatic castrate-resistant prostate cancer (medical or surgical castration: androgens deprivation by GnRH agonist or antagonist or patient with surgical castration; hormonal castration confirmed biologically (testosterone<0.5 ng/ml) with one of the following criteria: • If surgical castration is done than there is no requirement to perform testosterone test. • Pre-treated with abiraterone with progressed disease documented, OR • With indication for initiating docetaxel administration (e.g., widespread visceral disease or rapidly progressive disease). • Patient with evidence of progressive metastatic disease. Disease progression at trial enrolment is based on progression in at least one variable as described in the Prostate Cancer Clinical Trials Working Group (PCWG2) definition of response and progression for disease manifestations in prostate cancer (Scher et al. J Clin Oncol. 2008; 26:1148-1159):
# • Patient with ECOG≤1 • Patient with adequate organ function: […]
# [1] = baseline ALP > 250 IU/L and H > 18
# [2] = baseline ALP > 250 IU/L and H > 19
# [3] = baseline ALP > 250 IU/L and H > 20
# [4] = baseline ALP > 250 IU/L and H > 21
# [5] = baseline ALP > 250 IU/L and H > 22
# [6] = baseline ALP > 250 IU/L and H ≤ 20
# [7] = baseline ALP > 250 IU/L and H ≤ 21
# [8] = baseline ALP > 250 IU/L and H ≤ 22
# [9] = baseline ALP equal to or lower than 100 IU/L and H equal to or lower than 18
# [10] = baseline ALP equal to or lower than 150 IU/L and H equal to or lower than 18
# [11] = baseline ALP equal to or lower than 200 IU/L and H equal to or lower than 18
# [12] = baseline ALP ≤ 250 IU/L and H < 21
# [13] = baseline ALP ≤ 250 IU/L and H < 22
# [14] = baseline ALP ≤ 250 IU/L and H > 18
# [15] = baseline ALP ≤ 250 IU/L and H > 19
# [16] = baseline ALP ≤ 250 IU/L and H > 20
# [17] = baseline ALP ≤ 250 IU/L and H > 21
# [18] = baseline ALP ≤ 250 IU/L and H > 22
# [19] = baseline ALP ≤ 250 IU/L and H ≤ 18
# [20] = baseline ALP ≤ 250 IU/L and H ≤ 19
# [21] = baseline ALP ≤ 250 IU/L and H ≤ 20
smiles,measurement,setting,value
"Cc1ccc(NC(=O)c2ccc(CN3CCN(C)CC3)cc2)cc1Nc1nc(-c2cccnc2)cs1 [MASITINIB, 4-(4-methylpiperazin-1-ylmethyl)-N-[4-methyl-3-(4-pyridin-3ylthiazol-2-ylamino)phenyl]benzamide]",Hazard Ratio,baseline ALP > 200 IU/L,1.17
same,Median progression-free survival (PFS),[1],4.3 months
same,Hazard Ratio,[1],1.19
same,Median progression-free survival (PFS),[2],4.2 months
same,Hazard Ratio,[2],1.18
same,Median progression-free survival (PFS),[3],4.2 months
same,Hazard Ratio,[3],1.19
same,Median progression-free survival (PFS),[4],4.2 months
same,Hazard Ratio,[4],1.19
same,Median progression-free survival (PFS),[5],4.2 months
same,Hazard Ratio,[5],1.20
same,Median progression-free survival (PFS),baseline ALP > 250 IU/L and H ≤ 18,3.4 months
same,Median progression-free survival (PFS),baseline ALP > 250 IU/L and H ≤ 19,9.2 months
same,Median progression-free survival (PFS),[6],13 months
same,Hazard Ratio,[6],1.78
same,Median progression-free survival (PFS),[7],8.3 months
same,Hazard Ratio,[7],0.99
same,Median progression-free survival (PFS),[8],8.3 months
same,Hazard Ratio,[8],0.88
same,Median progression-free survival (PFS),baseline ALP > 250 IU/L,4.2 months
same,Hazard Ratio,baseline ALP > 250 IU/L,1.20
same,Hazard Ratio,[9],0.46
same,Risk Benefit,[9],56%
same,Hazard Ratio,[10],0.46
same,Risk Benefit,[10],55%
same,Hazard Ratio,[11],about 0.5
same,Risk Benefit,[11],about 50%
same,Median progression-free survival (PFS),baseline ALP ≤ 100 IU/L,9.0 months
same,Hazard Ratio,baseline ALP ≤ 100 IU/L,0.53
same,Risk Benefit,baseline ALP ≤ 100 IU/L,47%
same,Risk Benefit,"baseline ALP ≤ 100 IU/L, listed as masitinib",47%
same,Median progression-free survival (PFS),baseline ALP ≤ 150 IU/L,6.9 months
same,Hazard Ratio,baseline ALP ≤ 150 IU/L,0.63
same,Risk Benefit,baseline ALP ≤ 150 IU/L,37%
same,Median progression-free survival (PFS),baseline ALP ≤ 200 IU/L,6.9 months
same,Hazard Ratio,baseline ALP ≤ 200 IU/L,0.73
same,Risk Benefit,baseline ALP ≤ 200 IU/L,27%
same,Median progression-free survival (PFS),[12],7.0 months
same,Hazard Ratio,[12],0.62
same,Risk Benefit,[12],38%
same,Median progression-free survival (PFS),[13],6.9 months
same,Hazard Ratio,[13],0.63
same,Risk Benefit,[13],37%
same,Median progression-free survival (PFS),[14],6.2 months
same,Hazard Ratio,[14],0.87
same,Median progression-free survival (PFS),[15],6.1 months
same,Hazard Ratio,[15],0.86
same,Median progression-free survival (PFS),[16],5.8 months
same,Hazard Ratio,[16],0.90
same,Median progression-free survival (PFS),[17],5.8 months
same,Hazard Ratio,[17],0.94
same,Median progression-free survival (PFS),[18],5.8 months
same,Hazard Ratio,[18],0.97
same,Median progression-free survival (PFS),[19],7.7 months
same,Hazard Ratio,[19],0.52
same,Risk Benefit,[19],48%
same,Median progression-free survival (PFS),[20],6.9 months
same,Hazard Ratio,[20],0.66
same,Risk Benefit,[20],34%
same,Median progression-free survival (PFS),[21],7.0 months
same,Hazard Ratio,[21],0.62
same,Risk Benefit,[21],38%
same,Median progression-free survival (PFS),baseline ALP ≤ 250 IU/L,6.3 months
same,Hazard Ratio,baseline ALP ≤ 250 IU/L,0.79
same,Risk Benefit,baseline ALP ≤ 250 IU/L,21%
